Where “and” joins values, the source holds several entries; their conditions need not be identical. Identical values can stand only once.
Experiments:
A549 and H1975 cells = test: ROS generation, CM-H2DCFDA fluorimetric assay, statements covering both cancer cell lines; type: cell-based, human; conditions: 1 h; for Effect of NAC addition on ROS generation: 20 μM compound, 50 μM NAC; for ROS generation compared with cisplatin, tamoxifen and 5-fluorouracil: both cancer cell types, 20 μM
Experimental: (§1) Then, detached cells were resuspended in 0.5 mL of phosphate-buffered saline (PBS) containing 10 μM·L^–1 fluorescent probe 5-(and-6)-chloromethyl-2′,7′-dichlorodihydrofluorescein diacetate-acetyl ester (CM-H2DCFDA) and incubated for 15 min at 37 °C. Afterward, the incubation cells were centrifuged at 13,000 rpm for 30 s and resuspended in 0.5 mL of PBS. The fluorescence of each sample (index of ROS levels) was read at 488 nm (λexcitation) and 520 nm (λemission). The results were expressed as DCF fluorescence per mg cell proteins normalized vs control.

A549 cells [1] = test: Crystal violet cell viability / antiproliferative assay, A549; type: cell-based, human; conditions: for Selectivity index SInd, A549: IC50(BEAS-2B)/IC50(A549); for IC50: human NSCLC A549 cells, treatment time 72 h
Experimental: (§2) Human non-small-cell lung cancer cell lines A549 and H1975 and the human bronchial epithelial BEAS-2B cell line were purchased from ATCC (Manassas, VA). Cells were cultured in Roswell Park Memorial Institute (RPMI)-1640 media supplemented with 10% v/v fetal bovine serum, 100 U·mL^–1 penicillin, and 100 μg·mL^–1 streptomycin. Cells were grown in a humidified atmosphere at 37 °C and 5% CO2.
(§3) Crystal violet staining was used to assess cell viability. […] After 72 h, the medium was discarded and cells were stained for 30 min with 5% w/v crystal violet solution in 66% v/v methanol, 200 μL per well. After staining, the crystal violet solution was removed, and the 24-well plate was washed with water to eliminate the excess solution. When dried, the plates were photographed. Quantitation of crystal violet staining was performed after solubilizing the dye in 10% acetic acid, 400 μL per well, and reading the absorbance of each well at 540 nm (HT Synergy 96-well microplate reader, Bio-Tek Instruments, Winooski, VT). The relative absorbance of untreated cells was considered as 100% viability; results were expressed as a percentage of viable cells vs untreated cells.

H1975 cells [2] = test: Crystal violet cell viability / antiproliferative assay, H1975; type: cell-based, human; conditions: for Selectivity index SInd, H1975: IC50(BEAS-2B)/IC50(H1975); for IC50: human NSCLC H1975 cells, treatment time 72 h
Experimental: as §2, §3

BEAS-2B cells = test: Crystal violet cell viability / antiproliferative assay, BEAS-2B; type: cell-based, human; conditions: for IC50: nonmalignant human bronchial epithelium BEAS-2B cells, treatment time 72 h
Experimental: as §2, §3

A549 cells [3] = test: ROS generation, CM-H2DCFDA fluorimetric assay, A549; type: cell-based, human; conditions: 20 μM, 1 h
Experimental: as §1

H1975 cells [4] = test: ROS generation, CM-H2DCFDA fluorimetric assay, H1975; type: cell-based, human; conditions: 20 μM, 1 h
Experimental: as §1

[5] = Cyclic voltammetry in dichloromethane; type: physicochemical; conditions: for KC comproportionation constant: KC = exp(nF/RT)ΔE1/2, 25 °C; for Difference between the formal potentials: first and second oxidation; for E1°′ formal potential / E2°′ formal potential / E3°′ formal potential: vs FcH/[FcH]+, CH2Cl2, 0.1 mol·L–1 [NBu4][B(C6F5)4], 25 °C, scan rate 100 mV·s–1
Experimental: Electrochemical studies of compounds 1a, 1c, 2a, and 2c were carried out using cyclic voltammetry (CV) and square-wave voltammetry (SWV) (Table 1; Figures 5 (compounds 1a, 2a) and S13 (compounds 1c, 2c), see the SI). A solution of [NBu4][B(C6F5)4] (0.1 mol·L^–1) in anhydrous CH2Cl2 was used as the supporting electrolyte.[79] The choice of the supporting electrolyte was motivated by the beneficial properties of [B(C6F5)4]^− ions. In contrast to smaller counter ions such as [Cl]^−, [PF6]^−, [BF4]^−, or [ClO4]^−, [B(C6F5)4]^− tolerates the stabilization of greatly charged species in solution, minimizing undesired ion-pairing effects.[80],[81] The voltammetry experiments were performed at 25 °C. All potentials are referenced to the FcH/[FcH]^+ (Fc = Fe(η^5-C5H4)(η^5-C5H5)) redox couple (E°′ = 0 mV).[82]
Measurements on 1.0 mmol·L^–1 solutions of analytes 1a, 1c, 2a, and 2c in anhydrous dichloromethane solutions, containing 0.1 mol·L^–1 [NBu4][B(C6F5)4] as the supporting electrolyte, were conducted under an atmosphere of argon at 25 °C. A three-electrode cell, which utilized a Pt auxiliary electrode, a glassy carbon working electrode (surface area 0.031 cm^2), and an Ag/Ag^+ (0.01 mol·L^–1 AgNO3) reference electrode, was used as described in refs ([82]) and ([102]−[104]). […] Experimental potentials were referenced against an Ag/Ag^+ reference electrode, but results presented are referenced against the ferrocene [FcH/FcH^+ couple = 220 mV vs Ag/Ag^+, ΔEp = 61 mV; FcH = Fe(η^5-C5H5)2] as an internal standard.[82] When decamethylferrocene [Fc* = Fe(η^5-C5Me5)2] was used as an internal standard, the experimentally measured potentials were converted into Evs FcH/FcH^+ (under our conditions, the Fc*/Fc*^+ couple was at −614 mV vs FcH/FcH^+, ΔEp = 60 mV).

[6] = versus cisplatin, tamoxifen, 5-fluorouracil

| SMILES | IC50 (A549 cells [1]) [µM] | IC50 (H1975 cells [2]; NCI-H1975) [µM] | IC50 (H1975 cells [2]) [µM] | KC comproportionation constant [5] | Difference between the formal potentials [5] [mV] | E1°′ formal potential [5] | E2°′ formal potential [5] | E3°′ formal potential [5] | Effect of NAC addition on ROS generation (A549 and H1975 cells) | Selectivity index SInd, A549 (A549 cells [1]; 72 h) | Selectivity index SInd, H1975 (H1975 cells [2]; 72 h) | IC50 (BEAS-2B cells) [µM] | ROS generation compared with cisplatin, tamoxifen and 5-fluorouracil (A549 and H1975 cells) | Increase of cell viability with NAC compared to cells treated only with compound (A549 cells [1]; A549 cells, 20 μM compound, 50 μM NAC, 72 h) | ROS generated, times more than 1c (A549 cells [3]) [times] | ROS generation, times more potent than reference drugs (A549 cells [3]; [6]) [times] | ROS generated, times more than 1c (H1975 cells [4]) | ROS generation, times more potent than reference drugs (H1975 cells [4]; [6]) | Increase of cell viability with NAC compared to cells treated only with compound (H1975 cells [2]; H1975 cells, 20 μM compound, 50 μM NAC, 72 h) [%] | Increase of cell viability with NAC compared to cells treated only with compound (BEAS-2B cells; BEAS-2B cells, 20 μM compound, 50 μM NAC, 72 h) |
| --- | --- | --- | --- | --- | --- | --- | --- | --- | --- | --- | --- | --- | --- | --- | --- | --- | --- | --- | --- | --- |
| O=c1[nH]cc(F)c(=O)[nH]1 [5-fluorouracil, reference compound] | 69 ± 21 | 32 ± 12 |  |  |  |  |  |  | almost no effect | 0.1 | 0.2 | 6 ± 0.1 |  |  |  |  |  |  |  |  |
| N.N.[Cl][Pt][Cl] [cisplatin, reference compound] | 108 ± 12 |  | 4 ± 0.1 |  |  |  |  |  | almost no effect | 0.02 | 0.7 | 3 ± 0.1 |  |  |  |  |  |  |  |  |
| Cc1cn([C@H]2C[C@H](n3nnc(-[c-]4cccc4)c3C#C[c-]3cccc3)[C@@H](CO)O2)c(=O)[nH]c1=O.[Fe+2].[Fe+2].c1cc[cH-]c1.c1cc[cH-]c1 [compound 1a, 3′-Deoxy-3′-(4-ferrocenyl-5-ethynylferrocenyl-1H-1,2,3-triazol-1-yl)thymidine] | 57 ± 18 |  | 5 ± 2 | 2412 | 200 | 80 mV and 80 (60) mV | 280 mV and 280 (66) mV |  |  | 8.2 | 93.8 | 469 ± 10 | more effective ROS generators | analogous increase | ~2.5 | ~2.5 | about 1.6 times | about 2 times | ~20 | analogous increase |
| Cc1cn([C@H]2C[C@H](n3cc(-[c-]4cccc4)nn3)[C@@H](CO)O2)c(=O)[nH]c1=O.[Fe+2].c1cc[cH-]c1 [compound 1c, 3′-Deoxy-3′-(4-ferrocenyl-1H-1,2,3-triazol-1-yl)thymidine] | 230 ± 13 |  | 456 ± 17 |  |  | 60 mV and 60 (66) mV |  |  |  | 0.9 | 0.5 | 215 ± 7 | more effective ROS generators |  |  |  |  |  |  |  |
| CC/C(=C(\c1ccccc1)c1ccc(OCCN(C)C)cc1)c1ccccc1 [tamoxifen] |  |  |  |  |  |  |  |  | almost no effect |  |  |  |  |  |  |  |  |  |  |  |

Second part, led by results:

| IC50 (A549 cells [1]) [µM] | IC50 (H1975 cells [2]; NCI-H1975) [µM] | IC50 (H1975 cells [2]) [µM] | KC comproportionation constant [5] | Difference between the formal potentials [5] [mV] | E1°′ formal potential [5] | E2°′ formal potential [5] | E3°′ formal potential [5] | SMILES | Effect of NAC addition on ROS generation (A549 and H1975 cells) | Selectivity index SInd, A549 (A549 cells [1]; 72 h) | Selectivity index SInd, H1975 (H1975 cells [2]; 72 h) | IC50 (BEAS-2B cells) [µM] | ROS generation compared with cisplatin, tamoxifen and 5-fluorouracil (A549 and H1975 cells) | Increase of cell viability with NAC compared to cells treated only with compound (A549 cells [1]; A549 cells, 20 μM compound, 50 μM NAC, 72 h) | ROS generated, times more than 1c (A549 cells [3]) [times] | ROS generation, times more potent than reference drugs (A549 cells [3]; [6]) [times] | ROS generated, times more than 1c (H1975 cells [4]) | ROS generation, times more potent than reference drugs (H1975 cells [4]; [6]) | Increase of cell viability with NAC compared to cells treated only with compound (H1975 cells [2]; H1975 cells, 20 μM compound, 50 μM NAC, 72 h) [%] | Increase of cell viability with NAC compared to cells treated only with compound (BEAS-2B cells; BEAS-2B cells, 20 μM compound, 50 μM NAC, 72 h) |
| --- | --- | --- | --- | --- | --- | --- | --- | --- | --- | --- | --- | --- | --- | --- | --- | --- | --- | --- | --- | --- |
| 184 ± 7 |  | 84 ± 5 | 9426 | 235 | 45 mV and 45 (60) mV | 280 mV and 280 (61) mV | 365 mV and 365 (63) mV | O=C(CCn1nnc(-[c-]2cccc2)c1C#C[c-]1cccc1)[c-]1cccc1.[Fe+2].[Fe+2].[Fe+2].c1cc[cH-]c1.c1cc[cH-]c1.c1cc[cH-]c1 [compound 2a, 1-(3-Propionylferrocenyl)-4-ferrocenyl-5-ethynylferrocenyl-1H-1,2,3-triazole] |  | 1.4 | 3.0 | 257 ± 5 |  |  |  |  |  |  |  |  |
| 805 ± 72 |  | 122 ± 45 |  |  | 20 mV and 20 (61) mV |  | 330 mV and 330 (67) mV | O=C(CCn1cc(-[c-]2cccc2)nn1)[c-]1cccc1.[Fe+2].[Fe+2].c1cc[cH-]c1.c1cc[cH-]c1 [compound 2c, 1-(3-Propionyloferrocenyl)-4-ferrocenyl-1H-1,2,3-triazole] |  | 0.2 | 1.6 | 198 ± 7 |  |  |  |  |  |  |  |  |

Reference: article PMC9490837, “Electronic Coupling in 1,2,3-Triazole Bridged Ferrocenes and Its Impact on Reactive Oxygen Species Generation and Deleterious Activity in Cancer Cells” (Inorganic Chemistry, 2022)
